Assay results from patent publication US20240174634A1, “Aldehyde Dehydrogenase Inhibitors and Their Therapeutic Use” (priority 2020, published 2024).

What follows are compounds tested against T1, ALDH1A3 (Homo sapiens, UniProt P47895) (assay: Primary biochemical assay, NAD(P)H-Glo Detection System). Details: 30 min pre-incubation, propionaldehyde and NAD at Km.
T1 sequence (P47895 1-512): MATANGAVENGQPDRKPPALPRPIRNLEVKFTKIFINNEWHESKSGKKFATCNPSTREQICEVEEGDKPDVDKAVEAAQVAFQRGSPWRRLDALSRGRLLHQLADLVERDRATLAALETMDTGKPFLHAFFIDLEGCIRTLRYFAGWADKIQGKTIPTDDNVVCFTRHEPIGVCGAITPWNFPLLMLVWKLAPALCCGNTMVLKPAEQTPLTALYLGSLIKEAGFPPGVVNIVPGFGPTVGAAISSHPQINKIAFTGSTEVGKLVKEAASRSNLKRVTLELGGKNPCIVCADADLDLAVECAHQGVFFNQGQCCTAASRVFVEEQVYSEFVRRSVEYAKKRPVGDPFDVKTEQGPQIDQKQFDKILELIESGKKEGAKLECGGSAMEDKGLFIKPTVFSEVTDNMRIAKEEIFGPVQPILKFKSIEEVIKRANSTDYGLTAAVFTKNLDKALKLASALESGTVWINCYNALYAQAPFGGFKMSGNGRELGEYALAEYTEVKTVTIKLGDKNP
Parameters: His-tag; made in house; host or cells: E. coli Rosetta (DE3)
Source text: Cloning: Open reading frames corresponding to the protein coding sequences of full length human ALDH1A1 (Uniprot ID P00352), ALDH1A2 (094788) and ALDH1A3 (P47895) were polymerase chain reaction (PCR) amplified from human cDNA and inserted into the multi-cloning sites of the commercially available (Novagen) E. coli expression vectors pET47b (ALDH1A1, EcoRI restriction site; ALDH1A2, BamHI and EcoRI sites) or pET28a (ALDH1A3, NdeI and BamHI sites), using standard molecular genetic techniques. Recombinant DNA products were sequence verified prior to use in expression studies.
Expression: Expression constructs were transformed into the E. coli strain Rosetta (DE3) (Merck) and individual colonies used to inoculate 10 mL lysogen broth (LB) medium supplemented with kanamycin and chloramphenicol at 50 μg/mL and 34 μg/mL, respectively. Cultures were grown to saturation overnight at 37° C., prior to being used to sub-inoculate fresh 1 L LB medium cultures (plus antibiotics, as before). 1 L cultures were grown at 37° C., 200 rpm, throughout the day until the optical density at 600 nm (OD600) reached ˜0.8, at which point growth temperature was reduced to 18° C. and 1 mM isopropyl β-d-1-thiogalacto pyranoside (IPTG) added to induce protein expression.
Cultures were left overnight (at least 16 h) under these conditions and the following day harvested by centrifugation (4000 G, 10 minutes). Culture supernatant was discarded and cell pellets stored at −80° C. until further processing.
Purification: Cell pellets were thawed on ice, re-suspended in Ni Affinity Buffer A (20 mM HEPES pH 7.5, 300 mM NaCl, 20 mM imidazole, 1 mM tris(2-carboxyethyl)phosphine (TCEP)) with protease inhibitors (cOmplete Ultra protease inhibitor, Roche), and lysed by sonication. Lysates were clarified by centrifugation at 18,000 G, 4° C., for 40 minutes, and loaded directly onto a pre-equilibrated (Buffer A) 5 mL HisTrap Fast Flow column (GE Healthcare) by way of an AKTA Fast Protein Liquid Chromatography (FPLC) system. The column was sequentially treated with 6 column volumes (CV) 100% Buffer A, 8 CV of 90% Buffer A:10% Buffer B (20 mM 4-(2-hydroxyethyl)-1-piperazineethanesulfonic acid (HEPES) pH 7.5, 300 mM NaCl, 500 mM imidazole, 1 mM TCEP) and finally a linear gradient from 10-70% Buffer B over 8 CV to elute recombinant His-tagged protein. Relevant fractions (as measured by 280 nm absorbance) collected during elution were pooled and subjected to further purification by size exclusion chromatography (Superdex 200 26/600, GE Healthcare, running buffer 20 mM 2-(carbamoylmethylamino)ethanesulfonic acid (ACES) pH 7.5, 1 mM TCEP). Relevant fractions from this step were pooled, aliquoted, and stored at −80° C. until required for compound profiling assays.
Materials: ALDH2 was purchased from Abnova. Tris(hydroxymethyl)aminomethane (Tris) was purchased from MP Biomedicals. TCEP, ethylenediaminetetraacetic acid (EDTA), propionaldehyde, DMSO and Tween-20 were purchased from Sigma. Nicotinamide adenine dinucleotide (NAD) was obtained from Abcam. The NAD(P)H-Glo™ Detection System was purchased from Promega. White, non-binding surface, 384 well plates were supplied by Corning (#3574).
Method: Inhibition of ALDH1A3 was assessed using the NAD(P)H-Glo™ Detection System (Cat. No. G9062) from Promega. This assay detects the production of NADH from NAD by ALDH1A3 via the coupled enzymatic conversion of a proluciferin reductase substrate to generate a luminescent signal. Inhibition of ALDH1A3 by small molecule inhibitors will result in reduction or abrogation of luminescence signal increase above background. Inhibition of ALDH1A1, ALDH1A2 and ALDH2 (selectivity assays) were assessed using the same assay.
Compounds were dosed into Corning 384 well assay plates using an Echo acoustic dispenser to give 10 point curves in a 3-fold dilution series. Compounds were dispensed from a 20 mM DMSO stock and initially screened at a top concentration of 20 μM (ALDH1A3) or 250 μM (ALDH1A1, ALDH1A2 & ALDH2). […]

Row | Compound | IC50 [nM]
1 | O=C1CCc2cc(OCCN(CCO)Cc3cccc(F)c3)ccc2N1 [ALDHI-3002, 6-[2-[(3-fluorophenyl)methyl-(2-hydroxyethyl)amino]ethoxy]-3,4-dihydro-1H-quinolin-2-one] | < 100
2 | C[C@H](c1ccccc1)N(CCO)CCOc1ccc2c(c1)CCC(=O)N2 [ALDHI-3006, 6-[2-[2-hydroxyethyl-[(1R)-1-phenylethyl]amino]ethoxy]-3,4-dihydro-1H-quinolin-2-one] | 100 to 1000
3 | CC1Cc2cc(OCCN3CCCC3c3cccc(F)c3)ccc2NC1=O (stereo not shown) [ALDHI-2048, 6-[2-[2-(3-fluorophenyl)pyrrolidin-1-yl]ethoxy]-3-methyl-3,4-dihydro-1H-quinolin-2-one] | < 100
4 | O=C1CCc2cc(NC(=O)c3scnc3-c3ccc(F)cc3)ccc2N1 [ALDHI-1017, 4-(4-fluorophenyl)-N-(2-oxo-1,2,3,4-tetrahydroquinolin-6-yl)thiazole-5-carboxamide] | < 100
5 | O=C1CCc2cc(OCCN3CCCC3c3ccccc3F)ccc2N1 (stereo not shown) [ALDHI-2002, 6-[2-[2-(2-fluorophenyl)pyrrolidin-1-yl]ethoxy]-3,4-dihydro-1H-quinolin-2-one] | < 100
6 | CCN(CC)CCN(CCOc1ccc2c(c1)CCC(=O)N2)Cc1ccccc1 [ALDHI-3004, 6-[2-[benzyl-[2-(diethylamino)ethyl]amino]ethoxy]-3,4-dihydro-1H-quinolin-2-one] | 100 to 1000
7 | CCC1Oc2cc(OCCN3CCCC3c3cccc(F)c3)ccc2NC1=O (stereo not shown) [ALDHI-2045, 2-ethyl-7-[2-[2-(3-fluorophenyl)pyrrolidin-1-yl]ethoxy]-4H-1,4-benzoxazin-3-one] | < 100
8 | O=C1CSc2cc(OCCN3CCCC3c3cccc(F)c3)ccc2N1 (stereo not shown) [ALDHI-2008, 7-[2-[2-(3-fluorophenyl)pyrrolidin-1-yl]ethoxy]-4H-1,4-benzothiazin-3-one] | < 100
9 | O=C1CCc2cc(NC(=O)c3sc(N4CCOCC4)nc3-c3cccc(F)c3)ccc2N1 [ALDHI-1001, 4-(3-fluorophenyl)-2-morpholino-N-(2-oxo-3,4-dihydro-1H-quinolin-6-yl)thiazole-5-carboxamide] | < 100
10 | CC1(c2cccc(F)c2)CCCN1CCOc1ccc2c(c1)CCC(=O)N2 (stereo not shown) [ALDHI-2037, 6-[2-[2-(3-fluorophenyl)-2-methyl-pyrrolidin-1-yl]ethoxy]-3,4-dihydro-1H-quinolin-2-one] | < 100
11 | O=C1CCc2cc(NC(=O)c3scnc3-c3cccc(F)c3)ccc2N1 [ALDHI-1003, 4-(3-fluorophenyl)-N-(2-oxo-3,4-dihydro-1H-quinolin-6-yl)thiazole-5-carboxamide] | < 100
12 | O=C1CCc2cc(OCCN3CCCC3c3cccc(F)c3)ccc2N1 (stereo not shown) [ALDHI-2001, 6-[2-[2-(3-fluorophenyl)pyrrolidin-1-yl]ethoxy]-3,4-dihydro-1H-quinolin-2-one] | < 100
13 | O=C1CCc2cc(OCCN3CCCC3c3ccccn3)ccc2N1 (stereo not shown) [ALDHI-2006, 6-[2-[2-(2-pyridyl)pyrrolidin-1-yl]ethoxy]-3,4-dihydro-1H-quinolin-2-one] | 100 to 1000
14 | O=C1CCc2cc(OCCN3CCC[C@H]3c3cccc(F)c3)ccc2N1 [ALDHI-2018, 6-[2-[(2S)-2-(3-fluorophenyl)pyrrolidin-1-yl]ethoxy]-3,4-dihydro-1H-quinolin-2-one] | < 100
15 | CC1CN(CCOc2ccc3c(c2)CCC(=O)N3)C(c2ccccc2)CO1 (mixture of isomers) [ALDHI-2042, 6-[2-(2-methyl-5-phenyl-morpholin-4-yl)ethoxy]-3,4-dihydro-1H-quinolin-2-one] | 100 to 1000
16 | O=C1CCc2cc(NC(=O)c3ncsc3-c3cccnc3)ccc2N1 [ALDHI-1010, N-(2-oxo-3,4-dihydro-1H-quinolin-6-yl)-5-(3-pyridyl)thiazole-4-carboxamide] | 1000 to 10000
17 | O=C1CSc2cc(OCCN3CCCC3c3cccnc3)ccc2N1 (stereo not shown) [ALDHI-2028, 7-[2-[2-(3-pyridyl)pyrrolidin-1-yl]ethoxy]-4H-1,4-benzothiazin-3-one] | < 100
18 | O=C1CCc2cc(NC(=O)c3cncnc3-c3cccc(F)c3)ccc2N1 [ALDHI-1018, 4-(3-fluorophenyl)-N-(2-oxo-3,4-dihydro-1H-quinolin-6-yl)pyrimidine-5-carboxamide] | 100 to 1000
19 | O=C1CCc2cc(OCCN3CCCC3c3cccs3)ccc2N1 (stereo not shown) [ALDHI-2013, 6-[2-[2-(2-thienyl)pyrrolidin-1-yl]ethoxy]-3,4-dihydro-1H-quinolin-2-one] | < 100
20 | CN(CCOc1ccc2c(c1)CCC(=O)N2)C(CO)c1cccc(F)c1 (stereo not shown) [ALDHI-3003, 6-[2-[[1-(3-fluorophenyl)-2-hydroxy-ethyl]-methyl-amino]ethoxy]-3,4-dihydro-1H-quinolin-2-one] | 100 to 1000
21 | O=C1CCc2cc(NC(=O)c3scnc3-c3ccccc3Cl)ccc2N1 [ALDHI-1012, 4-(2-chlorophenyl)-N-(2-oxo-3,4-dihydro-1H-quinolin-6-yl)thiazole-5-carboxamide] | 1000 to 10000
22 | O=C1CCCc2cc(OCCN3CCCC3c3cccc(F)c3)ccc2N1 (stereo not shown) [ALDHI-2020, 7-[2-[2-(3-fluorophenyl)pyrrolidin-1-yl]ethoxy]-1,3,4,5-tetrahydro-1-benzazepin-2-one] | < 100
23 | Cc1ccccc1C1CCCN1CCOc1ccc2c(c1)CCC(=O)N2 (stereo not shown) [ALDHI-2012, 6-[2-[2-(o-tolyl)pyrrolidin-1-yl]ethoxy]-3,4-dihydro-1H-quinolin-2-one] | 100 to 1000
24 | O=C1CCc2cc(NC(=O)c3c[nH]nc3-c3cccc(F)c3)ccc2N1 [ALDHI-1006, 3-(3-fluorophenyl)-N-(2-oxo-1,2,3,4-tetrahydroquinolin-6-yl)-1H-pyrazole-4-carboxamide] | 100 to 1000
25 | O=C1CCc2cc(OCCN3CC(O)CC3c3cccc(F)c3)ccc2N1 (mixture of isomers) [ALDHI-2035, 6-[2-[2-(3-fluorophenyl)-4-hydroxy-pyrrolidin-1-yl]ethoxy]-3,4-dihydro-1H-quinolin-2-one] | < 100
26 | O=C1CCc2cc(OCCN3CCCC3c3cc(F)cc(F)c3)ccc2N1 (stereo not shown) [ALDHI-2032, 6-[2-[2-(3,5-difluorophenyl)pyrrolidin-1-yl]ethoxy]-3,4-dihydro-1H-quinolin-2-one] | < 100
27 | O=C1CCc2cc(OCCN3CCC[C@@H]3c3cccc(F)c3)ccc2N1 [ALDHI-2007, 6-[2-[(2R)-2-(3-fluorophenyl)pyrrolidin-1-yl]ethoxy]-3,4-dihydro-1H-quinolin-2-one] | < 100
28 | Cc1ccc(C2CCCN2CCOc2ccc3c(c2)CCC(=O)N3)cn1 (stereo not shown) [ALDHI-2030, 6-[2-[2-(6-methyl-3-pyridyl)pyrrolidin-1-yl]ethoxy]-3,4-dihydro-1H-quinolin-2-one] | 100 to 1000
